Marks after values point to notes of the source that are not given here.
How the values were obtained:
[1] = test system: retinal ganglion cells and optic nerve axons; experiment: optic nerve transection: retinal ganglion cell survival, optic nerve axon preservation and myelination 90 days after transection; assay type: in vivo, rat; conditions: for RGC Counts: mean density + SEM of Fluoro-gold labeled RGC in 400 μm × 400 μm gridfields; for ON Axon density: RT97 labeled axons in 200 μm × 200 μm region, mean + SEM; for Proximal optic nerve myelin basic protein Density: % areal coverage of optic nerve cross section, ± SEM; for increased ON axon density: adjusted for optic nerve diameter; for ON axon Count: calculated by multiplying axonal density by ON area; for Distal optic nerve myelin basic protein Density (myelin level): cross sectional area multiplied by myelin density
From the text: All eyes and optic nerves stumps were removed.

[2] = test system: retinal ganglion cells and optic nerve; experiment: retinal ischemia: degeneration of retinal ganglion cells, optic nerve axons and myelin; assay type: in vivo, rat
From the text: Retinal ganglion cells were retrogradely labeled in adult rats by bilateral injection of fluorogold in their lateral geniculate nuclei. Labeled ganglion cells in the normal rat retina appear as white profiles against the dark background (FIG. 1A). Complete retinal ischemia was produced by infusing normal saline solution into the retinal vitreous cavity of each eye until the intraocular pressure exceeded arterial blood pressure. 28 days after the ischemic episode extensive degeneration of retinal ganglion cell was evidenced by massive reduction in the density of fluorogold labeled cells (FIG. 1B).

[3] = test system: retina; experiment: streptozotocin induced diabetes: retinal neovascularization and neuronal loss; assay type: in vivo; conditions: 28 day treatment beginning 8 weeks after onset of streptozotocin induced diabetes
[4] = test system: retinal ganglion cell axons; experiment: protection of retinal ganglion cell axons from degeneration 14 days after optic nerve transection (RT97); assay type: in vivo; conditions: ± SEM
From the text: Efficacy of represetative compounds from different immunophilin ligand series in protecting retinal ganglion cell axons from degeneration following optic nerve transection set forth in Table 9.
Efficacy of representative compounds from different immunophilin ligand series in protecting retinal ganglion cell axons from degeneration following optic nerve transection

[5] = Clearance; assay type: in vitro ADME; conditions: Table 9 comments
[6] = test system: streptozotocin-induced diabetic rat; experiment: sensory neuropathy in streptozotocin-induced diabetes: hot plate and tail flick; assay type: in vivo; conditions: lesioned animals treated for 6 weeks at 10 mg/kg s.c., treatment started six weeks after streptozotocin
Method: The procedure involved using Male Wistar rats which were given a single injection of streptozotocin (65 mg/kg i.v.). Blood glucose levels were determined weekly for the first three weeks and on the last week of the experiment. Animals were evaluated weekly for signs of sensory neuropathy using the conventional hot plate and tail flick apparatus test procedures.

[7] = test system: aged mice; experiment: Morris watermaze spatial learning and memory in aged rodents; assay type: in vivo, mouse; conditions: aged impaired C57BL/6N-Nia mice, 10 mg/kg daily, retention testing after 3 weeks of dosing
From the text: The Morris watermaze is widely used for assessing spatial memory formation and retention in experimental animals. The test depends on the animal's ability to utilize spatial visual information in order to locate a submerged escape platform in a water tank. It is important that the tank itself be as devoid of specific visual features as possible-thus, it is always circular in shape, the sides are kept smooth and in uniform dull colors, and the water is rendered opaque with nontoxic watercolor pigment or powdered milk. This is to ensure that the animal navigates only by the use of more distant visual cues, or by the use of intra-maze cues specifically provided by the experimenter. The tank is filled to a level which forces the animal to swim actively. Normal mice and rats react […] to the swimming part of the test and will climb onto, and remain on, an escape platform from which they are removed to a heated resting cage. If the platform is visible (i.e. above the surface), animals placed in the tank will quickly learn to home in on the platform and climb out onto it. […] Swim Distances (cm) were analyzed in a 7×5 ANOVA including Groups and Blocks (1-5) as factors in the analysis, treating Blocks as a repeated measure.

[8] = ONT/14 days GPI 1046, 90 days after transection
[9] = ONT/28 days GPI 1046, 90 days after transection
[10] = 28 days after 1 hour retinal ischemic episode, toluidine blue staining

With CCC(C)(C)C(=O)C(=O)N1CCC[C@H]1C(=O)OCCCc1cccnc1 [GPI 1046, 3-(3-pyridyl)-1-propyl (2s)-1-(3,3-dimethyl-1,2-dioxopentyl)-2-pyrrolidinecarboxylate] the “preservation of axons of protected neurons in the proximal stump” value ([1]; Example 16: 10 mg/kg/day s.c. for 28 days, 90 days after transection, RT97) was “preserved the axons of virtually all protected neurons”, the “ganglion cell population spared (perikaryal neuroprotection)” value ([1]; Example 16: 10 mg/kg/day s.c. for 28 days, sacrificed 90 days after transection) was 25% and the “protection of optic nerve axons” value ([1]; GPI 1046 for the first 14 days after optic nerve transection, proximal stump, 90 days) was 5.3%. For the same compound, the “RGC Counts” value ([1]; ONT/14 days GPI 1046, 10 mg/kg/day sc, 90 days after transection) was “small but not significant increase”, the “% RGCs Rescued” value [1, 8] was 5.3% and the “% surviving RGCs with ON axons” value [1, 8] was 33.6%. The “Distal optic nerve stump shrinkage (cross sectional area vs sham)” value [1, 8] was “did not protect against shrinkage of the distal stump”, the “ON head area (% sham)” value [1, 8] was 76% sham and the “Spared RGC population” value [1, 8] was 20,275. The “ON Axon density” value [1, 8] was 569 ± 23, the “Proximal optic nerve myelin basic protein Density” value ([1]; ONT/14 days GPI 1046) was 1.6 ± 3.0 SEM % recovery and the “increased ON axon density” value ([1]; ONT/14 days GPI 1046) was 1.5×. The “ON axon Count” value ([1]; ONT/14 days GPI 1046) was 6820, the “Distal optic nerve myelin basic protein Density (myelin level)” value ([1]; ONT/14 days GPI 1046) was “slightly increase the density of myelin” and the “RGC Counts” value ([1]; ONT/28 days GPI 1046, 10 mg/kg/day sc, 90 days after transection) was 67.9 + 5.8*. The “% surviving RGCs with ON axons” value [1, 9] was 81.4%, the “Distal optic nerve stump shrinkage (cross sectional area vs sham)” value [1, 9] was “prevented cross sectional shrinkage of the distal stump” and the “ON head area (% sham)” value [1, 9] was 95%* % sham. For the same compound, the “Spared RGC population” value [1, 9] was 28,096*, the “ON Axon density” value [1, 9] was “significant increase in the density of large, and particularly medium and small caliber optic nerve axons” and the “Proximal optic nerve myelin basic protein Density” value ([1]; ONT/28 days GPI 1046) was 70 ± 6.3 SEM % recovery. The “increased ON axon density” value ([1]; ONT/28 days GPI 1046) was 5.0×, the “ON axon Count” value ([1]; ONT/28 days GPI 1046) was 22,861* and the “Distal optic nerve myelin basic protein Density (myelin level)” value ([1]; ONT/28 days GPI 1046) was 99% myelin % myelin preservation. For the same compound, the “protection of retinal ganglion cells (density of fluorogold labeled cells)” value ([2]; 10 mg/kg s.c. 1 hour prior to ischemic episode and 10 mg/kg/day for next four days, 28 days after ischemia) was “noticeable protection of a large proportion of the vulnerable ganglion cell population”, the “density of degenerating myelin figures” value [2, 10] was “dramatically decreased the density of degenerating myelin figures” and the “protection of optic nerve axons from ischemic degeneration” value [2, 10] was “protected the majority of optic nerve axons from degeneration”. For the same compound, the “neovascularization in the PR, ONL, OPL and INL” value [3] was “reduced neovascularization”, the “neuronal loss in the ONL” value [3] was “did not appear to protect against neuronal loss in the ONL” and the “loss of neurons in the INL and GCL” value ([3]; vs streptozotocin/vehicle) was “appeared to decrease the loss of neurons in both the INL and GCL”. The “RT 97 + RGC axon density 14 days after ON transaction (36 ON axons rescued)” value [4] was 60.5% ±3.9 SEM, the Clearance [5] was 63.8 µL/min and the “latency in hot plate and tail flick tests” value [6] was “improvement in latency”. For the same compound, the “spatial memory performance (swim distance), retention testing” value [7] was “significantly enhanced spatial memory performance”.

From US6384056B1, “Heterocyclic thioesters or ketones for vision and memory disorders” (GPI NIL Holdings, Inc., priority 1998, dated 2002)
